# Test results taken from ChEMBL document CHEMBL1157712, “Hit to lead account of the discovery of bisbenzamide and related ureidobenzamide inhibitors of Rho kinase” (J Med Chem, 2010).
# Columns and labels:
# [1] = molecular target: T1, Rho-associated protein kinase 2 (Homo sapiens, UniProt O75116)
# Description: (§2) Inhibition of human ROCK2 by homogenous luciferase assay
# [2] = molecular target: T1, Rho-associated protein kinase 2; assay: Inhibition of human ROCK2 by IMAP assay
# [3] = molecular target: T1, Rho-associated protein kinase 2; remark: listed apart in the source
# Description: as §2
# [4] = molecular target: Serine/threonine-protein kinase N2 (Homo sapiens, UniProt Q16513)
# Sequence of Serine/threonine-protein kinase N2 (Q16513 whole entry): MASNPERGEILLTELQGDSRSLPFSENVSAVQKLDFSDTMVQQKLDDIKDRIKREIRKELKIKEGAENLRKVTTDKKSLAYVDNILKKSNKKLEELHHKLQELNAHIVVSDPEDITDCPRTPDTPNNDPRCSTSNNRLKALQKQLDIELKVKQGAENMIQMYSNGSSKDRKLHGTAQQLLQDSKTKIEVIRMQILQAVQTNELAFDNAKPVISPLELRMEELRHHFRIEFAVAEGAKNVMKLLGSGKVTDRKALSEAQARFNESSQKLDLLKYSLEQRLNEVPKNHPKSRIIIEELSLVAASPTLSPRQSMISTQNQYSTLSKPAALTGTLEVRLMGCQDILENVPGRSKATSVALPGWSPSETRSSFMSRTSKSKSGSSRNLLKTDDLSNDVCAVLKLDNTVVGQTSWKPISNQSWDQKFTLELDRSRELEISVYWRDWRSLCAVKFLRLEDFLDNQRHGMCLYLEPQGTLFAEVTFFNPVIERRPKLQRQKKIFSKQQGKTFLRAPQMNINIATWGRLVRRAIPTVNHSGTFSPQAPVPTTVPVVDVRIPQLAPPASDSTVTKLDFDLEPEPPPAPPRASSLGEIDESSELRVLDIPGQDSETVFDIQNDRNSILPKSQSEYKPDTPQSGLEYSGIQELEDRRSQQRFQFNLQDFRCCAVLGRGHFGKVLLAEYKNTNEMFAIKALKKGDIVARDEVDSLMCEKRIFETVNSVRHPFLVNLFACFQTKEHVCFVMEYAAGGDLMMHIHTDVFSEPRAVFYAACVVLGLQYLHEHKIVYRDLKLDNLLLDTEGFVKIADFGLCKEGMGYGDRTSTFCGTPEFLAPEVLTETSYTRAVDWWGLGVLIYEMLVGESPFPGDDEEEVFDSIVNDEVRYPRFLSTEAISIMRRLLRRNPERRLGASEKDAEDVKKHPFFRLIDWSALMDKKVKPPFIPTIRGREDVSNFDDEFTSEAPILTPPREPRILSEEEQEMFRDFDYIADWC
# [5] = molecular target: Serine/threonine-protein kinase MRCK beta (Homo sapiens) (UniProt Q9Y5S2); assay: Inhibition of CDC42BPB
# Sequence of Serine/threonine-protein kinase MRCK beta (Homo sapiens) (Q9Y5S2 whole entry, looked up): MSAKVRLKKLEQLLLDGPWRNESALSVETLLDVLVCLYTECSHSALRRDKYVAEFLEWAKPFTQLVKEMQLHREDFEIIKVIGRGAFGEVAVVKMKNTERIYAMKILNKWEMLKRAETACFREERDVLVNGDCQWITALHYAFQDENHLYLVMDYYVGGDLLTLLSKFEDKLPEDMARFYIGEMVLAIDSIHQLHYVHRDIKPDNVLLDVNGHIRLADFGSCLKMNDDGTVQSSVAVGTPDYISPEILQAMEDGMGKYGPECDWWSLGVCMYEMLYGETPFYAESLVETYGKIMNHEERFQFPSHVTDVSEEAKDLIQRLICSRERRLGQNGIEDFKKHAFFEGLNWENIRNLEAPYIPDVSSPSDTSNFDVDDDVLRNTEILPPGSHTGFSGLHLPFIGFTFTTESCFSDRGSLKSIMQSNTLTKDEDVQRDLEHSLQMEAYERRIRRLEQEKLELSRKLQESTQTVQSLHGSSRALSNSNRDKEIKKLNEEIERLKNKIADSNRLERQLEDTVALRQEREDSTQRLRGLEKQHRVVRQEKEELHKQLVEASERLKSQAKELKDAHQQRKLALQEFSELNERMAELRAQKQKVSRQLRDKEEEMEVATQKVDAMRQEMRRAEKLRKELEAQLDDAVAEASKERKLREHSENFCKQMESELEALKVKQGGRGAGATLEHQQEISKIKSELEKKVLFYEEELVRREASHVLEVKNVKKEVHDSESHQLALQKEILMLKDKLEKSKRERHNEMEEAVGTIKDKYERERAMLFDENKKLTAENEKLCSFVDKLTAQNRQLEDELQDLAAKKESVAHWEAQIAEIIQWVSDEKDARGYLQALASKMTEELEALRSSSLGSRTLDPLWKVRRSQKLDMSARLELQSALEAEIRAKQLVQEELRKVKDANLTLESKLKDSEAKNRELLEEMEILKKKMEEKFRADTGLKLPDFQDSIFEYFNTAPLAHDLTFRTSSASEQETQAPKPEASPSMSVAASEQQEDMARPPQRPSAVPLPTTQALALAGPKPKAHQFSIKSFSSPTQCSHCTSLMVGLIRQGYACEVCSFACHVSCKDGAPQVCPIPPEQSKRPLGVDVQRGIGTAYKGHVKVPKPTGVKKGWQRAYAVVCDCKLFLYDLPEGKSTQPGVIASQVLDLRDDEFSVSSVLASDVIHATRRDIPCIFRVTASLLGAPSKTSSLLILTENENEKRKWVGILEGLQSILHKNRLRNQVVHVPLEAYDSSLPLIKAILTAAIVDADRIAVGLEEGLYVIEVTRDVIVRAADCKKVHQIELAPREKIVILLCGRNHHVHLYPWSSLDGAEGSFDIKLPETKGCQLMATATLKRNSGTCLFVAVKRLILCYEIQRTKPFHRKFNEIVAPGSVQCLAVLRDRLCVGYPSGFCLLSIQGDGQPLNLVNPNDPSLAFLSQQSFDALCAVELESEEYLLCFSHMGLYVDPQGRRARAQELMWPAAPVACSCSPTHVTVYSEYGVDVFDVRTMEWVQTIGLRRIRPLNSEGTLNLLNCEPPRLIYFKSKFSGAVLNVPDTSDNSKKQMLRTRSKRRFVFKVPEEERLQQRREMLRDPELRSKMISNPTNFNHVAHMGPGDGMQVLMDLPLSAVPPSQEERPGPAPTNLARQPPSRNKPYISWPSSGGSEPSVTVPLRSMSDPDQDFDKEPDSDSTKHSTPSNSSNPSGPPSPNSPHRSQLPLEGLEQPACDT
# [6] = molecular target: T2, Protein kinase C epsilon type (Homo sapiens, UniProt Q02156); assay: Inhibition of PKCepsilon
# T2 sequence (Q02156 whole entry): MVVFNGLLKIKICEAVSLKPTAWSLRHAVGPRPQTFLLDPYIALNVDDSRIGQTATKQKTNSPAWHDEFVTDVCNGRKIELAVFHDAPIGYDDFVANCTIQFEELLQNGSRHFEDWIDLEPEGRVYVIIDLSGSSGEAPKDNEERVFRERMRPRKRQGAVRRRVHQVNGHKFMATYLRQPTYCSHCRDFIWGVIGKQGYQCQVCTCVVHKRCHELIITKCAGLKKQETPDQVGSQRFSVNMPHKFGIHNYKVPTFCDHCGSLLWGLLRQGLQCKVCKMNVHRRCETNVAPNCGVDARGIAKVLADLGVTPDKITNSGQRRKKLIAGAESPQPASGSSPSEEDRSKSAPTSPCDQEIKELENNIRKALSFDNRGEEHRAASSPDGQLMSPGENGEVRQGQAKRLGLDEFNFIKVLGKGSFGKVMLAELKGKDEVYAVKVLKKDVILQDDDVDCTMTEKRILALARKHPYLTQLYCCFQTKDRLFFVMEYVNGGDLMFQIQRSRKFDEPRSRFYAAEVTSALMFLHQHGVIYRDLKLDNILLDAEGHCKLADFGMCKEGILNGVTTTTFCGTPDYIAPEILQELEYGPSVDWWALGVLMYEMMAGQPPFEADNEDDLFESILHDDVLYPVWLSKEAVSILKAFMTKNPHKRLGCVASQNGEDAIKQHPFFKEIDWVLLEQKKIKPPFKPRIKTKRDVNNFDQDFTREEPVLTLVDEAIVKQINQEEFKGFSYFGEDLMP
# [7] = Solubility at pH 7.4; type: physicochemical; conditions: buffer
# [8] = Membrane permeability by PAMPA assay; type: ADME; conditions: read-out: permeability
# [9] = (§1) Permeability from apical to basolateral side in human Caco-2 cells; type: ADME, cell-based; conditions: Caco-2, read-out: permeability
# [10] = Metabolic stability in human liver microsomes assessed as half life; type: ADME, Microsome
# Cytochrome P450 1A2 = molecular target: T3, Cytochrome P450 1A2 (Homo sapiens, UniProt P05177); assay: Inhibition of human CYP1A2 by fluorescence assay; type: ADME
# T3 sequence (P05177 whole entry): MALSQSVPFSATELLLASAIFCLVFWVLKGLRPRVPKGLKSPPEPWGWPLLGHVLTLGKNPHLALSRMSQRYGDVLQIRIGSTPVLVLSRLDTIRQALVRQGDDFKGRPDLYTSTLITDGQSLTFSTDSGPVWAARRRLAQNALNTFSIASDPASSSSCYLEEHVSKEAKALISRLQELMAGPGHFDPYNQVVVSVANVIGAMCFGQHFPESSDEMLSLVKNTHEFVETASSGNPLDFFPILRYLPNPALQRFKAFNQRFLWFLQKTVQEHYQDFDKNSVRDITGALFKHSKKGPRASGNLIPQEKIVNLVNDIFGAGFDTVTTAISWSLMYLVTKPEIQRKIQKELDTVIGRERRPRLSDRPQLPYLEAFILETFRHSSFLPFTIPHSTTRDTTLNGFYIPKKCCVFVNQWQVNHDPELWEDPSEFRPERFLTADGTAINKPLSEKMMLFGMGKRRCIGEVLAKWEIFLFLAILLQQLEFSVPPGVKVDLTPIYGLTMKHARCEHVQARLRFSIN
# Cytochrome P450 2D6 = Cytochrome P450 2D6 (Homo sapiens, UniProt P10635); assay: Inhibition of human CYP2D6 by fluorescence assay; type: ADME
# Sequence of Cytochrome P450 2D6 (P10635 whole entry): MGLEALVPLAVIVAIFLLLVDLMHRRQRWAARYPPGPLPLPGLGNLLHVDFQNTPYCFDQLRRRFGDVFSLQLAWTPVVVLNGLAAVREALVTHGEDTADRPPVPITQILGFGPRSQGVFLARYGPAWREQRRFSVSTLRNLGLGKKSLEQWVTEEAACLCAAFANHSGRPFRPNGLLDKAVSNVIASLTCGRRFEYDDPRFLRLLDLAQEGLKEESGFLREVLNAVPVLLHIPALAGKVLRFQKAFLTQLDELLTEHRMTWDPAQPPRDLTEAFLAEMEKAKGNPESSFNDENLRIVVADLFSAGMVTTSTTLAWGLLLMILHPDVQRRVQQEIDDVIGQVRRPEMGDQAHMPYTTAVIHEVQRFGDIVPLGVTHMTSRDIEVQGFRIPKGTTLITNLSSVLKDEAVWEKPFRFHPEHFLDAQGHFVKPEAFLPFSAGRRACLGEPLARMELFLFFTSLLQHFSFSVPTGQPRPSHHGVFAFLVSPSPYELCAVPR
# [11] = Permeability from basolateral to apical side in human Caco-2 cells; type: ADME, cell-based; conditions: read-out: permeability
# Cytochrome P450 2C9 = Cytochrome P450 2C9 (Homo sapiens, UniProt P11712); assay: Inhibition of human CYP2C9 by fluorescence assay; type: ADME
# Cytochrome P450 3A4 [12] = molecular target: T4, Cytochrome P450 3A4 (Homo sapiens, UniProt P08684); assay: Inhibition of human CYP3A4 using BQ substrate by fluorescence assay; type: ADME
# T4 sequence (P08684 whole entry): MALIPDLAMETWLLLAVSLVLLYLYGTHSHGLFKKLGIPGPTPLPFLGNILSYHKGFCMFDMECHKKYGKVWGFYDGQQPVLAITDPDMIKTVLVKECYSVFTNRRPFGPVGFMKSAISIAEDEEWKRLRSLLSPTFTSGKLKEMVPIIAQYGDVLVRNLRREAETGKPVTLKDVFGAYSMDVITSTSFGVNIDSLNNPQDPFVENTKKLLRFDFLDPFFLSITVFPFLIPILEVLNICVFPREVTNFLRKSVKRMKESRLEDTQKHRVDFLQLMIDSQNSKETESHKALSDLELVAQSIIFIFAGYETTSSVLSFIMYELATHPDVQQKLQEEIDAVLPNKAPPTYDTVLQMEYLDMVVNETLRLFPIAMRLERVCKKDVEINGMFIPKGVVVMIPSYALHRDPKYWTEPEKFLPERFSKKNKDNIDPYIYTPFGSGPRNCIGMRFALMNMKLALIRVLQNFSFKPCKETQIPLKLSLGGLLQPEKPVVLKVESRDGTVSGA
# Cytochrome P450 3A4 [13] = molecular target: T4, Cytochrome P450 3A4; assay: Inhibition of human CYP3A4 using BFC substrate by fluorescence assay; type: ADME
# Cytochrome P450 2C19 = Cytochrome P450 2C19 (Homo sapiens, UniProt P33261); assay: Inhibition of human CYP2C19 by fluorescence assay; type: ADME
# Rattus norvegicus = species on record: Rattus norvegicus; assay: Induction of relaxation activity of phenylephrine-induced Sprague-Dawley rat aortic ring contraction; type: functional; conditions: Aorta
# Caco-2 = assay: as §1; type: ADME, cell-based; conditions: caco-2, BLD = below limit of detection
# T1 sequence (O75116 whole entry): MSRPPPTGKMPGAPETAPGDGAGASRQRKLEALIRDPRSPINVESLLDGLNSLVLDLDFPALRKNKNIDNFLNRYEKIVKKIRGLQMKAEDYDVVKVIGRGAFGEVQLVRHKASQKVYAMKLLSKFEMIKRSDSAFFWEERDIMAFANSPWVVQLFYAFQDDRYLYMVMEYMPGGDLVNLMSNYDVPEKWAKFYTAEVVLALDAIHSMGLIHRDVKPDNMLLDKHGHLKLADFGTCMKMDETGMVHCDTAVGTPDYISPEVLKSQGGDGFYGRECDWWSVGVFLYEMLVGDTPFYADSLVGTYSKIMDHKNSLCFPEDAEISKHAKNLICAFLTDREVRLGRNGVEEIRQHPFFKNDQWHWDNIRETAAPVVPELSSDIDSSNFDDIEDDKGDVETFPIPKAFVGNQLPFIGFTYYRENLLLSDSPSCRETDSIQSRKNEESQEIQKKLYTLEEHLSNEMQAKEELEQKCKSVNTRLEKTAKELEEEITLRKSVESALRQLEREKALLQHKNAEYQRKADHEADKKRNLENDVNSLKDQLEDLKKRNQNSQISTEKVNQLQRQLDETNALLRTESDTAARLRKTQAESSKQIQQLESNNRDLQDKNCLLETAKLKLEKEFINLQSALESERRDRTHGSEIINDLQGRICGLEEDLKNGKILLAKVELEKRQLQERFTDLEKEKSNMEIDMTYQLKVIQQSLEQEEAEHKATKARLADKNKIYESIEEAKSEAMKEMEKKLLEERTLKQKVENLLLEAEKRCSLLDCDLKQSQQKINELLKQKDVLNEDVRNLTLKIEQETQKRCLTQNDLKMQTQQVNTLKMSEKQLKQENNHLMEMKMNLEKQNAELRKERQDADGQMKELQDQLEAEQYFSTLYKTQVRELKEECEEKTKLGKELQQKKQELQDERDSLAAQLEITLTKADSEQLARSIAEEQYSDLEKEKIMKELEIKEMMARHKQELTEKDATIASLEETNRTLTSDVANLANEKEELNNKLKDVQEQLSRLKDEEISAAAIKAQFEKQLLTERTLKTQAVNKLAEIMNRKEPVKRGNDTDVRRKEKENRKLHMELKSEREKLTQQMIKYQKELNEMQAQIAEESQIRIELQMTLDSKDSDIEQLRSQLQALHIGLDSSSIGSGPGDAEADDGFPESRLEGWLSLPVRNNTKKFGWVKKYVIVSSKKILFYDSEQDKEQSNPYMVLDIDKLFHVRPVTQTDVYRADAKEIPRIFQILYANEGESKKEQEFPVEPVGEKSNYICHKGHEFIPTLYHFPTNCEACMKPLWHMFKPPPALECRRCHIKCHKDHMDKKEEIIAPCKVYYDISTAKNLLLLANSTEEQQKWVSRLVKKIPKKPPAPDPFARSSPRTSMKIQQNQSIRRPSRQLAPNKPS
smiles,measurement,setting,value
COc1cccc(C(=O)NCc2cccc(C(=O)NCCc3ccncc3)c2)c1,IC50,[1],> 7000 µM
COc1ccc(NC(=O)Nc2cccc(C(=O)NCCC3CCCNC3)c2)cc1OC (configuration not stated),IC50,[1],> 7000 µM
CN(C)Cc1ccc(NC(=O)c2cccc(CNC(=O)Nc3ccc(C(N)=O)c(Cl)c3)c2)cc1,IC50,[2],0.18 µM
same,IC50,[3],74 µM
N#Cc1cccc(NC(=O)NCc2cccc(C(=O)NCCC3CCCNC3)c2)c1 (configuration not stated),IC50,[1],0.089 µM
same,IC50,[4],> 5 µM
same,IC50,[5],> 5 µM
same,IC50,[6],> 5 µM
COc1ccc(NC(=O)Cc2cccc(NC(=O)CCC3CCCNC3)c2)cc1OC (configuration not stated),IC50,[3],37 µM
COc1ccc(CNC(=O)c2cccc(C(=O)NCCC3CCCNC3)c2)cc1OC (configuration not stated),IC50,[1],> 6000 µM
COc1ccc(S(=O)(=O)NCc2cccc(C(=O)NCCC3CCCNC3)c2)cc1OC (configuration not stated),IC50,[1],> 6000 µM
COc1ccc(C(=O)NCc2cccc(C(=O)NCCC3CCCN(C)C3)c2)cc1OC (configuration not stated),IC50,[3],102 µM
COc1ccc(C(=O)NCc2cccc(C(=O)NCCC3CCNCC3)c2)cc1OC,solubility,[7],67 µg/mL
same,Papp,[8],0.6 ×10⁻⁶ cm/s
same,Papp A→B,[9],0.1 ×10⁻⁶ cm/s
same,IC50,[4],> 5 µM
same,half-life,[10],1.45 h
same,IC50,[5],> 5 µM
same,IC50,Cytochrome P450 1A2,> 30 µM
same,IC50,Cytochrome P450 2D6,> 30 µM
same,Papp B→A,[11],0.6 ×10⁻⁶ cm/s
same,IC50,[6],> 5 µM
same,IC50,Cytochrome P450 2C9,> 30 µM
same,IC50,Cytochrome P450 3A4 [12],> 30 µM
same,IC50,Cytochrome P450 3A4 [13],> 30 µM
same,IC50,Cytochrome P450 2C19,> 30 µM
N#Cc1ccc(NC(=O)NCc2cccc(C(=O)Nc3ccc(CN)cc3)c2)cc1,IC50,[2],0.21 µM
same,IC50,[3],70 µM
COc1ccc(C(=O)NCc2cccc(C(=O)Nc3ccc(CN(C)C)cc3)c2)cc1C(F)(F)F,IC50,[2],0.35 µM
same,IC50,[3],160 µM
COc1ccc(C(=O)NCc2cccc(C(=O)Nc3ccc4c(c3)CN(C)CC4)c2)cc1OC,IC50,[1],0.046 µM
same,solubility,[7],> 85 µg/mL
same,Papp,[8],16 ×10⁻⁶ cm/s
same,Papp A→B,[9],0.3 ×10⁻⁶ cm/s
same,IC50,[4],> 5 µM
same,half-life,[10],0.917 h
same,IC50,[5],> 5 µM
same,IC50,Cytochrome P450 1A2,> 30 µM
same,IC50,Cytochrome P450 2D6,> 30 µM
same,Papp B→A,[11],27.1 ×10⁻⁶ cm/s
same,IC50,[6],> 5 µM
same,IC50,Cytochrome P450 2C9,> 30 µM
same,IC50,Cytochrome P450 3A4 [12],> 30 µM
same,IC50,Rattus norvegicus,1.2 µM
same,IC50,Cytochrome P450 3A4 [13],1.7 µM
same,IC50,Cytochrome P450 2C19,> 30 µM
CN(C)Cc1ccc(NC(=O)c2cccc(CNC(=O)Nc3ccc(C#N)c(Cl)c3)c2)cc1,IC50,[2],0.045 µM
same,IC50,[3],10 µM
CN(C)Cc1ccc(NC(=O)c2cccc(CNC(=O)c3ccc(O)c(O)c3)c2)cc1,IC50,[1],> 6 µM
same,IC50,[2],> 6.4 µM
O=C(NCCc1ccncc1)c1cccc(CNC(=O)c2ccc3c(c2)OCO3)c1,IC50,[1],> 7000 µM
COc1ccc(NC(=O)NCc2cccc(C(=O)NCCC3CCCNC3)c2)cc1OC (configuration not stated),IC50,[3],1600 µM
CN(C)Cc1ccc(NC(=O)c2cccc(CNC(=O)c3ccc(OC(F)(F)F)c(Cl)c3)c2)cc1,IC50,[2],1.3 µM
same,IC50,[3],670 µM
COc1ccc(C(=O)NCc2cccc(C(=O)NCCC3CCCNC3)c2)cc1OC (configuration not stated),IC50,[1],0.053 µM
same,solubility,[7],16 µg/mL
same,Papp A→B,[9],0.1 ×10⁻⁶ cm/s
same,IC50,[4],4.4 µM
same,half-life,[10],2.32 h
same,IC50,[5],> 5 µM
same,IC50,Cytochrome P450 1A2,> 30 µM
same,IC50,Cytochrome P450 2D6,> 30 µM
same,Papp B→A,[11],0.8 ×10⁻⁶ cm/s
same,IC50,[6],> 5 µM
same,IC50,Cytochrome P450 2C9,> 30 µM
same,IC50,Cytochrome P450 3A4 [12],> 30 µM
same,IC50,[2],0.14 µM
same,IC50,Cytochrome P450 3A4 [13],> 30 µM
same,IC50,Cytochrome P450 2C19,> 30 µM
N#Cc1cccc(NC(=O)NCc2cccc(C(=O)NCCc3ccncc3)c2)c1,IC50,[1],5.5 µM
CN(C)Cc1ccc(NC(=O)c2cccc(CNC(=O)c3ccc(C#N)cc3)c2)cc1,IC50,[2],> 6.5 µM
COc1ccc(C(=O)Nc2cccc(C(=O)NCCC3CCCNC3)c2)cc1OC (configuration not stated),IC50,[1],> 6000 µM
N#Cc1ccc(NC(=O)NCc2cccc(C(=O)NCCC3CCNCC3)c2)cc1,IC50,[3],65 µM
N#Cc1ccc(NC(=O)NCc2cccc(NC(=O)CCC3CCCNC3)c2)cc1 (configuration not stated),IC50,[3],110 µM
COc1ccc(C(=O)NCc2cccc(C(=O)Nc3ccc4c(c3)CCNC4)c2)cc1OC,IC50,[2],0.32 µM
same,IC50,[3],100 µM
CCCNC(=O)c1cccc(CNC(=O)c2ccc(OC)c(OC)c2)c1,IC50,[1],5 µM
O=S(=O)(c1cccc2cnccc12)N1CCCNCC1 [FASUDIL],IC50,Rattus norvegicus,6.1 µM
COc1ccc(C(=O)NCc2cccc(C(=O)Nc3ccc(CN(C)C)cc3)c2)cc1,IC50,[2],> 6.5 µM
CN(C)Cc1ccc(NC(=O)c2cccc(CNC(=O)Nc3ccc(C(N)=O)cc3)c2)cc1,IC50,[2],0.014 µM
same,IC50,[3],8 µM
COc1ccc(CC(=O)Nc2cccc(C(=O)NCCC3CCCNC3)c2)cc1OC (configuration not stated),IC50,[3],3200 µM
CN(C)Cc1ccc(NC(=O)c2cccc(CNC(=O)Nc3ccc(C#N)cc3)c2)cc1,IC50,[1],0.065 µM
same,IC50,[4],> 5 µM
same,IC50,[5],> 5 µM
same,IC50,[6],> 5 µM
same,IC50,[2],0.16 µM
COc1cccc(C(=O)NCc2cccc(C(=O)Nc3ccc(CN(C)C)cc3)c2)c1,IC50,[1],> 7 µM
same,IC50,[2],> 7 µM
COc1ccc(C(=O)NCc2cccc(C(=O)NCC3CCCO3)c2)cc1OC (racemic),IC50,[3],1.2 µM
CN(C)Cc1ccc(NC(=O)c2cccc(CNC(=O)Nc3cccc(C(N)=O)c3)c2)cc1,IC50,[2],0.29 µM
same,IC50,[3],240 µM
N#Cc1ccc(NC(=O)NCc2cccc(C(=O)Nc3ccc4c(c3)CNCC4)c2)cc1,IC50,[1],0.014 µM
same,solubility,[7],> 100 µg/mL
same,permeability,Caco-2,BLD
same,IC50,[4],1.6 µM
same,half-life,[10],3.15 h
same,IC50,[5],> 5 µM
same,IC50,Cytochrome P450 1A2,> 30 µM
same,IC50,Cytochrome P450 2D6,> 30 µM
same,Papp B→A,[11],8.8 ×10⁻⁶ cm/s
same,IC50,[6],> 5 µM
same,IC50,Cytochrome P450 2C9,22 µM
same,IC50,Cytochrome P450 3A4 [12],> 30 µM
same,IC50,[2],0.048 µM
same,IC50,Rattus norvegicus,8.5 µM
same,IC50,Cytochrome P450 3A4 [13],5.9 µM
same,IC50,Cytochrome P450 2C19,> 30 µM
Cc1ccc(C(=O)NCc2cccc(C(=O)NCCc3ccncc3)c2)cc1C,IC50,[1],> 7000 µM
COc1ccc(C(=O)NCc2cccc(C(=O)NCCc3ccncc3)c2)cc1,IC50,[1],> 7000 µM
COc1ccc(C(=O)NCc2cccc(C(=O)Nc3ccc4cnccc4c3)c2)cc1OC,IC50,[3],685 µM
N#Cc1cccc(NC(=O)NCc2cccc(C(=O)NCC3CCCO3)c2)c1 (racemic),IC50,[1],3.5 µM
